# Key:
# megalin = test system: megalin; set-up: method as in Hori et al. ([18]); details: quartz crystal microbalance analysis, ref Hori et al. ([18]), cited from earlier work
# Description: Hori et al. ([18]) performed a study to evaluate the binding of megalin to vancomycin and cisplatin, as well as aminoglycosides and colistin. They utilized quartz crystal microbalance analysis to assess the dir ...
# Urinary KIM-1 = Urinary KIM-1 kidney injury in rats given vancomycin and/or protamine; details: for Contrast KIM-1: urinary KIM-1, vancomycin 150 mg/kg i.v., protamine sulfate 1.5 mg/kg i.v.
# Protocol: Male Sprague-Dawley rats (n = 19; age 8–10 weeks; 268–304 g; Envigo, Indianapolis, IN, USA) underwent double jugular catheterization ([33]) (Fig. 3A). Surgery was performed under ketamine (100 mg/kg of body weight) and xyalzine (10 mg/kg of body weight) anesthesia with buprenorphine (0.02 mg/kg of body weight) given post-operatively for pain management. Animals were allowed to recover 4 days before the administration of any drug. Animals were housed in metabolic cages starting 1 day prior to day 0 with access to food and water ad libitum for the duration of the study (Fig. 3B).
# Animals were divided into three experimental treatment protocols. Using a dedicated jugular vein for dosing, the animals received clinical grade intravenous protamine and/or vancomycin in doses allometrically scaled to humans according to the following protocols: (i) protamine sulfate (1.5 mg/kg of body weight) and vancomycin (150 mg/kg of body weight) (n = 6); (ii) protamine only (1.5 mg/kg of body weight) with saline sham (sham for volume of vancomycin) (n = 7); or (iii) vancomycin only (150 mg/kg of body weight) with saline sham (sham for volume of protamine) (n = 6) ([34][–][36]). Saline sham was given to match the volumes of protamine and vancomycin doses to maintain euvolemia. On day 0, all animals received only iohexol (51.8 mg/day) intravenously to establish baseline GFR measurements. Drugs were administered as described above by treatment protocols to all groups on days 1–4. Infusion times for each of the drugs include (i) protamine sulfate, 5 minutes; (ii) vancomycin and iohexol, 2 minutes; and (iii) saline sham, 5 or 2 minutes depending on what the sham was replacing.
# Urine samples were collected daily, and volumes were measured starting from day 0 to day 4. Samples were centrifuged at 500 g for 10 minutes, and the resulting supernatant was aliquoted (1.5 mL) and stored at −80°C for renal biomarker analysis later.
# Urinary samples were analyzed for KIM-1 using the Milliplex MAP Rat Kidney Toxicity Magnetic Bead Panel 1 (EMD Millipore Corporation, Charles, MO, USA) according to the manufacturer’s directions and as previously described ([34], [36], [37]). Briefly, neat urine aliquots were mixed with monoclonal antibody-coated magnetic microbeads (Bead Panel 1) and run on a 96-well plate, which also included a standard curve. Biomarker data were acquired, and concentrations were analyzed using Belysa Immunoassay Curve-Fitting Software V1 (MilliporeSigma, Darmstadt, Germany). The amount of urinary KIM-1 excreted over the 24-h collection period was obtained by multiplying the urinary concentration by 24-h urinary volume.
# An omnibus test, i.e., joint tests (multi-degree of freedom) of the interaction and main effects, which is similar to the F test in ANOVA, was used initially (STATA 17.0 BE, StataCorp LLC, College Station, TX, USA). Only models with significant interaction at P < 0.05 were selected for post hoc analysis (i.e., identification of the difference between treatment groups and days). Margins were calculated for a full factorial of the variables, i.e., main effects for each variable and interactions. Referent groups were pre-treatment baseline values and protamine alone as a treatment, except where noted. […] LOWESS graphs were produced in R version 4.2.2 using ggplot2. […] All tests were two-tailed; a P < 0.05 was required for statistical significance. Graphs for cellular studies were generated using GraphPad version 9.3.1 and were fit with a log(inhibitor) vs normalized response function after log transformation.
# acute kidney injury = details: cited from earlier work
# Description: Vancomycin is one of the most widely used antibiotics within United States in-patient healthcare systems, accounting for 11.9% of all antibiotic use for inpatient antimicrobials (1,258 out of 10,612) in a 2015 hospital survey ([1]). As a tricyclic glycopeptide, it is primarily indicated for severe Gram-positive bacterial infections, including methicillin-resistant Staphylococcus aureus (MRSA) ([2]). For about 70 years now, vancomycin has remained a first-line antibiotic widely used and studied across people of all ages. Despite its efficacy in the treatment of MRSA infections, one common limit ... || In humans, VAN (creatinine defined) ([41]) occurs between an interquartile range of 6–13 days ([42]), and creatinine is known to lag behind GFR ([43]). Serum creatinine is the most commonly utilized biomarker to classify AKI in patients ([41], [44][–][46]); however, creatinine is non-sensitive, non-specific, and slowly reactive to kidney function as compared to GFR ([47]). GFR can drop 50% before changes in SCr are detected ([48][–][50]). As such, acute injuries from vancomycin take a median of 6 days to be detectable with creatinine alone ([51]). Therefore, this study focused on the pre-clini ... || Originally derived from salmon fish sperm (salmine), protamine is a highly positively charged protein consisting of 32 amino acids. Currently, it is widely used as an effective agent to neutralize heparin using electrostatic bonds made between the cationic arginine groups of protamine and the anionic heparin in a 1:1 ratio ([6]). Specifically, protamine shares binding sites with heparin (current target for FDA-approved use) and megalin ([30], [31]). On this note, a clinical limitation for the use of protamine arises for patients who require heparin infusions, such as post-diabetic foot infecti ...
# [1] = within group, day 2 vs 1 (baseline)
# [2] = within group, day 3 vs 1 (baseline)
# [3] = within group, day 4 vs 1 (baseline)
compound,measurement,setting,value
CNC(C)C1CCC(N)C(OC2C(N)CC(N)C(OC3OCC(C)(O)C(NC)C3O)C2O)O1 (centres unmarked) [gentamicin],Direct binding to megalin (in words),megalin,megalin is bound specifically
CN[C@H](CC(C)C)C(=O)N[C@H]1C(=O)N[C@@H](CC(N)=O)C(=O)N[C@H]2C(=O)N[C@H]3C(=O)N[C@H](C(=O)N[C@H](C(=O)O)c4cc(O)cc(O)c4-c4cc3ccc4O)[C@H](O)c3ccc(c(Cl)c3)Oc3cc2cc(c3O[C@@H]2O[C@H](CO)[C@@H](O)[C@H](O)[C@H]2O[C@H]2C[C@](C)(N)[C@H](O)[C@H](C)O2)Oc2ccc(cc2Cl)[C@H]1O [Vancomycin],KIM-1 compared to protamine alone (in words),"Urinary KIM-1; day 2, 24 h after drug administration",significantly increased urinary KIM-1
same,KIM-1 change from baseline of day 1 (in words),"Urinary KIM-1; each animal group compared to itself, 4 days",elevated KIM-1 on days 2 and 3
same,Contrast KIM-1,"Urinary KIM-1; vs protamine alone, day 1 (prior to any drug), n = 6-7",0.72 ng/24 h
same,Contrast KIM-1,"Urinary KIM-1; vs protamine alone, day 2 (24 h after drug administration)",24.92 ng/24 h
same,Contrast KIM-1,"Urinary KIM-1; vs protamine alone, day 2 (24 h after drug administration), listed as vancomycin",24.9 ng/24 h
same,Contrast KIM-1,"Urinary KIM-1; vs protamine alone, day 3",20.88 ng/24 h
same,Contrast KIM-1,"Urinary KIM-1; vs protamine alone, day 4",9.00 ng/24 h
same,Contrast KIM-1,Urinary KIM-1; [1],24.81 ng/24 h
same,Contrast KIM-1,Urinary KIM-1; [2],20.50 ng/24 h
same,Contrast KIM-1,Urinary KIM-1; [3],8.55 ng/24 h
same,95% confidence interval of contrast KIM-1,"Urinary KIM-1; vs protamine alone, day 1",(−22.3–23.8) ng/24 h
same,95% confidence interval of contrast KIM-1,"Urinary KIM-1; vs protamine alone, day 2",(1.9–48.0) ng/24 h
same,95% confidence interval of contrast KIM-1,"Urinary KIM-1; vs protamine alone, day 2, listed as vancomycin",1.87–48.0 ng/24 h
same,95% confidence interval of contrast KIM-1,"Urinary KIM-1; vs protamine alone, day 3",(−2.2–43.9) ng/24 h
same,95% confidence interval of contrast KIM-1,"Urinary KIM-1; vs protamine alone, day 4",(−14.0–32.0) ng/24 h
same,95% confidence interval of contrast KIM-1,Urinary KIM-1; [1],(5.2–44.4) ng/24 h
same,95% confidence interval of contrast KIM-1,Urinary KIM-1; [2],(0.9–40.1) ng/24 h
same,95% confidence interval of contrast KIM-1,Urinary KIM-1; [3],(−11–28.1) ng/24 h
same,Direct binding to megalin (in words),megalin,megalin is bound specifically
same,"Time to VAN (creatinine defined), interquartile range","acute kidney injury; humans, after treatment initiation",6 to 13 days
same,Median time for acute injury to be detectable with creatinine alone,acute kidney injury; humans,6 days
same,Risk of AKI compared to other antibiotics,acute kidney injury; systematic review and meta-analysis,up to 2.5 times greater
colistin,Direct binding to megalin (in words),megalin,megalin is bound specifically
CC1(C)C[C@@H]1C(=O)N/C(=C\CCCCSC[C@H](N)C(=O)O)C(=O)O [cilastatin],Competition of drug binding to megalin (in words),"megalin; binding of gentamicin, colistin, vancomycin and cisplatin",the binding of all the drugs listed above is competed by cilastatin
N.N.[Cl][Pt][Cl] [cisplatin],Direct binding to megalin (in words),megalin,megalin is bound specifically
